Key:
Experiment in all cases: relative viability (nuclei count vs DMSO), 5 days (fraction); higher = more cells survive
Dasatinib + Bortezomib = compound: Cc1nc(Nc2ncc(C(=O)Nc3c(C)cccc3Cl)s2)cc(N2CCN(CCO)CC2)n1 [Dasatinib] + CC(C)C[C@H](NC(=O)[C@H](Cc1ccccc1)NC(=O)c1cnccn1)B(O)O [Bortezomib] (partner 0.002 µM)
Procedure, shortened: (§1)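 Lung cancer cell lines in 1536-well plates got either a single drug or a fixed anchor-drug dose together with five library-drug doses (not always all listed) in √10 steps, by pin tool, on the day after seeding. Nuclei were counted after 5 days, and relative viability is the treated-to-vehicle ratio of nuclei counts. Values are medians of duplicate plates.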

XMD13-2 + Trametinib = compound: C1CC1C(=O)NC2=NNC3=C2C=CC(=C3)C4=CC(=CC=C4)C(=O)NC5CC5 [XMD13-2] + CC(=O)Nc1cccc(-n2c(=O)n(C3CC3)c(=O)c3c(Nc4ccc(I)cc4F)n(C)c(=O)c(C)c32)c1 [Trametinib] (partner 0.02 µM)
Procedure, shortened: as §1

ALW-II-49-7 + Tozasertib = compound: Cc1ccc(C(=O)Nc2cccc(C(F)(F)F)c2)cc1Nc1cncc(C(N)=O)c1 [ALW-II-49-7] + Cc1cc(Nc2cc(N3CCN(C)CC3)nc(Sc3ccc(NC(=O)C4CC4)cc3)n2)n[nH]1 [Tozasertib] (partner 0.1 µM)
Procedure, shortened: as §1

ALW-II-49-7 + Bortezomib = compound: Cc1ccc(C(=O)Nc2cccc(C(F)(F)F)c2)cc1Nc1cncc(C(N)=O)c1 [ALW-II-49-7] + CC(C)C[C@H](NC(=O)[C@H](Cc1ccccc1)NC(=O)c1cnccn1)B(O)O [Bortezomib] (partner 0.002 µM)
Procedure, shortened: as §1

| Cell Line | relative viability (Dasatinib + Bortezomib; first compound 0.005 µM) | relative viability (Dasatinib + Bortezomib; first compound 0.01581 µM) | relative viability (Dasatinib + Bortezomib; first compound 0.05 µM) | relative viability (Dasatinib + Bortezomib; first compound 0.1581 µM) | relative viability (Dasatinib + Bortezomib; first compound 0.5 µM) | relative viability (XMD13-2 + Trametinib; first compound 0.05 µM) | relative viability (XMD13-2 + Trametinib; first compound 0.1581 µM) | relative viability (XMD13-2 + Trametinib; first compound 0.5 µM) | relative viability (XMD13-2 + Trametinib; first compound 1.581 µM) | relative viability (XMD13-2 + Trametinib; first compound 5 µM) | relative viability (ALW-II-49-7 + Tozasertib; first compound 0.08 µM) | relative viability (ALW-II-49-7 + Tozasertib; first compound 0.253 µM) | relative viability (ALW-II-49-7 + Tozasertib; first compound 0.8 µM) | relative viability (ALW-II-49-7 + Tozasertib; first compound 2.53 µM) | relative viability (ALW-II-49-7 + Tozasertib; first compound 8 µM) | relative viability (ALW-II-49-7 + Bortezomib; first compound 0.08 µM) | relative viability (ALW-II-49-7 + Bortezomib; first compound 0.253 µM) | relative viability (ALW-II-49-7 + Bortezomib; first compound 0.8 µM) | relative viability (ALW-II-49-7 + Bortezomib; first compound 2.53 µM) | relative viability (ALW-II-49-7 + Bortezomib; first compound 8 µM) |
| --- | --- | --- | --- | --- | --- | --- | --- | --- | --- | --- | --- | --- | --- | --- | --- | --- | --- | --- | --- | --- |
| HCC-366 | 0.989 | 0.738 | 0.637 | 0.632 | 0.407 | 0.413 | 0.334 | 0.412 | 0.286 | 0.331 | 0.168 | 0.17 | 0.0962 | 0.0839 | 0.0614 | 1.1 | 0.578 | 1.02 | 1.14 | 1.13 |
| NCI-H2126 | 1.08 | 1.07 | 1.16 | 0.988 | 0.587 | 0.571 | 0.55 | 0.588 | 0.561 | 0.531 | 0.856 | 0.885 | 0.826 | 0.197 | 0.786 | 1.09 | 1.17 | 1.2 | 1.08 | 1.17 |
| SK-LU-1 | 0.954 | 0.777 | 0.726 | 0.33 | 0.406 | 0.513 | 0.474 | 0.573 | 0.56 | 0.511 | 0.323 | 0.391 | 0.295 | 0.289 | 0.242 | 0.741 | 1.25 | 1.17 | 1.06 | 0.662 |
| HCC-78 | 0.419 | 0.381 | 0.463 | 0.385 | 0.225 | 0.842 | 0.71 | 0.834 | 0.833 | 0.792 | 0.482 | 0.396 | – | 0.43 | 0.505 | 0.463 | 0.434 | 0.405 | – | 0.491 |
| LCLC-97TM1 | 0.525 | 0.561 | 0.735 | 0.665 | 0.461 | 0.225 | 0.198 | 0.217 | 0.17 | 0.179 | 0.151 | 0.188 | 0.192 | 0.168 | 0.18 | 0.354 | 0.677 | 0.651 | – | 0.218 |
| NCI-H838 | 0.747 | 0.395 | 0.445 | 0.198 | 0.202 | 0.552 | 0.569 | 0.576 | 0.557 | 0.552 | 0.245 | 0.274 | 0.264 | 0.259 | 0.265 | 0.71 | 0.839 | 0.721 | 0.64 | 1.05 |
| NCI-H520 | 0.588 | 0.22 | 0.358 | 0.146 | 0.178 | 0.7 | 0.7 | 0.723 | 0.563 | 0.396 | 0.504 | 0.463 | 0.482 | 0.31 | 0.328 | 0.385 | 0.528 | – | 0.441 | 0.709 |
| NCI-H2347 | 0.732 | 0.857 | 0.929 | 0.324 | 0.368 | 0.294 | 0.268 | 0.211 | 0.291 | 0.265 | 0.422 | 0.543 | 0.463 | 0.563 | 0.57 | 0.539 | 1.28 | 1.08 | 0.23 | 0.566 |
| NCI-H441 | 0.487 | 0.613 | 0.511 | 0.734 | 0.172 | 0.569 | 0.452 | 0.459 | 0.535 | 0.538 | 0.709 | 0.512 | 0.751 | 0.54 | 0.478 | 0.333 | 0.559 | 0.431 | 0.384 | 0.208 |
| NCI-H2405 | 0.879 | 0.956 | 0.616 | 0.475 | 0.306 | 0.73 | 0.656 | 0.628 | – | 0.65 | 0.73 | 0.692 | 0.687 | 0.642 | 0.547 | 1.05 | 0.886 | 1.09 | 0.954 | 0.89 |
| HCC-15 | 1.01 | 1.01 | 1.11 | 0.965 | 0.743 | 0.353 | 0.351 | 0.428 | 0.363 | 0.344 | 0.325 | 0.367 | 0.272 | 0.328 | 0.333 | 0.957 | 0.92 | 0.959 | 1.1 | 0.952 |

— the supplement of paper PMC10307832
